Measurements as given in patent US12036237B2, “Bromide source for use in treating autism spectral disorder” (INSERM (INSTITUT NATIONAL DE LA SANTE ET DE LA RECHERCHE …, priority 2016, dated 2024).
“Also recorded” adds a separate entry of the source.

How the values were obtained:
Oprm1−/− mice [1] = experiment: Direct social interaction test; settings: Oprm1−/− mice, bumetanide 0.5 mg/kg i.p. daily vs saline
Oprm1−/− mice [2] = experiment: Motor stereotypies scoring; settings: bumetanide 0.5 mg/kg i.p. daily
Oprm1−/− mice [3] = experiment: Three-chamber social novelty preference test; settings: bumetanide 0.5 mg/kg i.p. daily vs saline
Oprm1−/− mice [4] = experiment: Y-maze exploration; settings: bumetanide 0.5 mg/kg i.p. daily; for rate of same arm returns (cognitive stereotypies): Oprm1−/− mice
[5] = literature statement (Romermann et al, 2017); cited from earlier work
Oprm1−/− mice [6] = experiment: Marble burying test; settings: bumetanide 0.5 mg/kg i.p. daily
Oprm1−/− mice [7] = experiment: Novelty-suppressed feeding test

CCCCNc1cc(C(=O)O)cc(S(N)(=O)=O)c1Oc1ccccc1 [bumetanide, Bumetanide]
number of and time spent in grooming episodes (Oprm1−/− mice [1]): only effective in reducing the number of grooming episodes | number of grooming episodes following a social contact (Oprm1−/− mice [1]): only effective in reducing the number of grooming episodes | number of nose contacts (Oprm1−/− mice [1]): no significant effect | number of, time spent in and duration of paw contacts (Oprm1−/− mice [1]): no significant effect | social interaction (overall) (Oprm1−/− mice [1]): only partially restored social interaction | time spent in and duration of nose contacts (Oprm1−/− mice [1]): increased, but failed to completely rescue | time spent in social contact (Oprm1−/− mice [1]): increased, but failed to completely rescue | number of and time spent in grooming episodes (Oprm1−/− mice [1]; listed as Bumetanide): normalized | number of grooming episodes following a social contact (Oprm1−/− mice [1]; listed as Bumetanide): normalized | circling episodes (Oprm1−/− mice [2]; Oprm1−/− mice): efficiently suppressed | stereotypic behaviour / motor stereotypies (overall) (Oprm1−/− mice [2]; Oprm1−/− mice): efficiently relieved stereotypic behaviour | stereotypic shakes (Oprm1−/− mice [2]; Oprm1−/− mice): efficiently suppressed | stereotypic behaviour / motor stereotypies (overall) (Oprm1−/− mice [2]; Oprm1−/− mice, listed as Bumetanide): suppressed motor stereotypies | duration of burying episodes (Oprm1−/− mice [2]; all mice): no significant effect | number of and time spent in burying episodes (Oprm1−/− mice [2]; all mice): increased | number of rearing and grooming episodes (Oprm1−/− mice [2]; mutant or wild-type): did not change | difference (mouse over toy) in number of nose contacts (Oprm1−/− mice [3]): restored the difference; also recorded: increased | difference (preference for the mouse over the toy) in time spent in compartments (Oprm1−/− mice [3]): restored the difference; also recorded: successfully restored | duration of close contacts with the living mouse (Oprm1−/− mice [3]): unable to reverse the deficit; also recorded: failed to restore | time spent in close contacts with the living mouse (Oprm1−/− mice [3]): unable to reverse the deficit; also recorded: absence of effect | rate of same arm returns (cognitive stereotypies) (Oprm1−/− mice [4]): reduced | rate of same arm returns (cognitive stereotypies) (Oprm1−/− mice [4]; listed as Bumetanide): reduced cognitive stereotypies; also recorded: similarly reduced | rates of spontaneous alternation and alternate arm returns (Oprm1−/− mice [4]; all animals): did not modify | ability to cross the blood brain barrier [5]: inability; also recorded: low ability to cross the blood brain barrier | number of marbles buried (Oprm1−/− mice [6]): did not significantly modify | food intake back in the home cage (Oprm1−/− mice [7]; Oprm1 line, bumetanide 0.5 mg/kg i.p. daily): did not modify significantly | feeding latency (Oprm1−/− mice [7]; Oprm1−/− mice, bumetanide 0.5 mg/kg i.p. daily): did not modify significantly | behavioural signs of anxiety (overall) (Oprm1−/− mice [7]; Oprm1−/− mice, marble burying and novelty-suppressed feeding, bumetanide 0.5 mg/kg): did not show effects
